From patent US20190062749A1, “SIRNA, PHARMACEUTICAL COMPOSITION AND CONJUGATE WHICH CONTAIN SIRNA, AND USES THEREOF” (priority 2015, published 2019)
Where two headings read alike, the source gives them in different places. Oligonucleotides are written 5' to 3', each unit as a sugar letter and its base; * is a phosphorothioate linkage, no mark a phosphodiester; rarer units and linkages stand in square brackets, end groups in braces. Plain capitals give the bases only. d = 2'-deoxy (DNA); m = 2'-O-methyl; r = 2'-OH (RNA); f = 2'-fluoro

Legend:
[1] = Stability of siRNAs in human plasma in vitro (gel, ratio of the longest fragments RL); type: in vitro ADME
Procedure: The siRNAs (20 μM, 10 μl) obtained in Preparation Example 1 were incubated with 50% human plasma (HP) at 37° C. in vitro for a certain time and samples were taken therefrom. Specifically, 10 μl samples were taken at 0, 2, 4, 6, 8, 24 and 48 hours respectively and immediately snap frozen in liquid nitrogen, followed by cryopreservation at −80° C. for future use. 20 wt % non-denaturing polyacrylamide gel was formulated, and 10 μl 5-fold diluted above samples (dilution solution: 1×PBS buffer at pH 7.4) and 4 μl loading buffer (20 mM EDTA, 36 wt % glycerol, 0.06 wt % bromophenol blue) were mixed and then loaded into the gel to perform electrophoresis for about 60 minutes under 80 mA constant current. After electrophoresis finished, the gel was stained with 1× Sybr Gold dye (Invitrogen, Cat. 11494) for 15 minutes followed by imaging.
The ratio of the longest fragments remained after incubating the test siRNAs and control siRNAs with human plasma to the longest fragments of the siRNAs without the treatment of human plasma (i.e., the markers shown in FIG. 3) (also referred to as ratio of the longest fragments, RL) is calculated by reading the grayscale values quantitatively.

[2] = prior application CN102140461B; cited from earlier work
[3] = test system: HBV gene; details: prior application CN102140461B; cited from earlier work

Substance	RL (ratio of the longest fragments) 0 h [1] [%]	RL (ratio of the longest fragments) 2 h [1] [%]	RL (ratio of the longest fragments) 4 h [1] [%]	RL (ratio of the longest fragments) 6 h [1] [%]	RL (ratio of the longest fragments) 8 h [1] [%]	RL (ratio of the longest fragments) 24 h [1] [%]	RL (ratio of the longest fragments) 48 h [1] [%]	RL (ratio of the longest fragments) 0 h ([1]; 50% human plasma, 37° C., 0 h) [%]	RL (ratio of the longest fragments) 2 h ([1]; 50% human plasma, 37° C., 2 h) [%]	RL (ratio of the longest fragments) 4 h ([1]; 50% human plasma, 37° C., 4 h) [%]	RL (ratio of the longest fragments) 6 h ([1]; 50% human plasma, 37° C., 6 h) [%]	RL (ratio of the longest fragments) 8 h ([1]; 50% human plasma, 37° C., 8 h) [%]	RL (ratio of the longest fragments) 24 h ([1]; 50% human plasma, 37° C., 24 h) [%]	RL (ratio of the longest fragments) 48 h ([1]; 50% human plasma, 37° C., 48 h) [%]	stability in blood [2]	activity at cell level compared to unmodified siRNA CA1 [3]	band position / full-length state on gel (FIG. 3) ([1]; 50% human plasma, up to 48 h)
NC-pos: negative control siRNA; sense UmUmCmUmCCGAAmCGmUGmUmCmAmCGUdTdT, antisense AfCmGfUGACAfCGfUUCGfGAGAAdTdT (sense UUCUCCGAACGUGUCACGUTT; antisense ACGUGACACGUUCGGAGAATT; chemistry not fully specified) [reference compound]	100.0	93.4	95.9	84.9	88.6	87.1	90.0	–	–	–	–	–	–	–	–	–	–
2d: sense CmCmUmUmGAGGCmAUmACmUmUmCmAAAdTdT, antisense UfUUfGAAGUfAUfGCCUfCAAGGdTdT (sense mCmCmUmUrGrArGrGmCrAmUrAmCmUmUmCrArArAdTdT; antisense fUrUfUrGrArArGfUrAfUrGrCrCfUrCrArArGrGdTdT)	–	–	–	–	–	–	–	100.0	97.6	88.2	82.2	84.5	82.1	78.4	–	–	–
X2M2(S−−): sense CmCmUmUmGAGGCmAUmACmUmUmCmAAAdTdT, antisense UfUmUfGAAGUfAUGCCUfCAAGGdTdT (as printed in the source, key not given here)	–	–	–	–	–	–	–	100.0	111.3	97.5	90.2	96.1	109.1	93.9	–	–	–
1d: sense CmCmUmUmGAGGCmAUmACmUmUmCmAAAdTdT, antisense UUmUfGAAGUfAUfGCCUfCAAGGdTdT (sense mCmCmUmUrGrArGrGmCrAmUrAmCmUmUmCrArArAdTdT; antisense rUmUfUrGrArArGfUrAfUrGrCrCfUrCrArArGrGdTdT)	–	–	–	–	–	–	–	100.0	90.0	97.2	93.3	87.5	55.7	65.1	–	–	–
14d: sense CmCmUmUmGAGGCmAUmACmUmUmCmAAAdTdT, antisense UfUmUfGAAGUfAUfGCCUCAAGGdTdT (sense mCmCmUmUrGrArGrGmCrAmUrAmCmUmUmCrArArAdTdT; antisense fUmUfUrGrArArGfUrAfUrGrCrCrUrCrArArGrGdTdT)	–	–	–	–	–	–	–	100.0	94.6	90.0	85.6	86.0	78.0	84.6	–	–	–
NC-bas: negative control siRNA; sense UmUmCmUmCmCmGAACmGUmGUmCmACmGUmdTdT, antisense ACmGUfGACfACfGUfUfCfGGAGAAdTdT (sense UUCUCCGAACGUGUCACGUTT; antisense ACGUGACACGUUCGGAGAATT; chemistry not fully specified) [reference compound]	100.0	95.1	89.8	86.8	85.3	91.1	90.8	–	–	–	–	–	–	–	–	–	–
8d: sense CmCmUmUmGAGGCmAUmACmUmUmCmAAAdTdT, antisense UfUmUfGAAGUAUfGCCUfCAAGGdTdT (sense mCmCmUmUrGrArGrGmCrAmUrAmCmUmUmCrArArAdTdT; antisense fUmUfUrGrArArGrUrAfUrGrCrCfUrCrArArGrGdTdT)	–	–	–	–	–	–	–	100.0	78.2	72.7	59.7	48.3	34.0	25.9	–	–	–
X2M2(S++): sense CmCmUmUmGAGGCmAUmACmUmUmCmAAAdT-s-dT, antisense UfUmUfGAAGUfAUGCCUfCAAGGdT-s-dT (sense CCUUGAGGCAUACUUCAAAT; antisense UUUGAAGUAUGCCUCAAGGT; chemistry not fully specified)	–	–	–	–	–	–	–	100.0	101.5	98.2	98.6	93.0	92.1	90.9	–	–	–
3d: sense CmCmUmUmGAGGCmAUmACmUmUmCmAAAdTdT, antisense UfUmUGAAGUfAUfGCCUfCAAGGdTdT (sense mCmCmUmUrGrArGrGmCrAmUrAmCmUmUmCrArArAdTdT; antisense fUmUrUrGrArArGfUrAfUrGrCrCfUrCrArArGrGdTdT)	–	–	–	–	–	–	–	100.0	96.6	99.6	93.3	87.1	75.0	41.6	–	–	–
A4: siRNA of CN102140461B; sense CmCmUmUmGAGGCmAUmACmUmUmCmAAAdTdT, antisense UfUmUfGAAGUfAUfGCCUfCAAGGdTdT (sense CCUUGAGGCAUACUUCAAATT; antisense UUUGAAGUAUGCCUCAAGGTT; sense: DNA at T, 2'-O-methyl at CU, RNA at AG, backbone not given here; antisense: sugars from the 5' end fmfrrrrfrfrrrfrrrrrdd, backbone not given here) [reference compound]	–	–	–	–	–	–	–	100.0	97.5	93.7	106.0	91.7	90.0	81.2	increased stability in blood	substantially equal inhibitory activity as that of siRNA CA1	band thereof significantly shifts downward gradually
NC: negative control siRNA; sense UUCUCCGAACGUGUCACGUdTdT, antisense ACGUGACACGUUCGGAGAAdTdT (sense UUCUCCGAACGUGUCACGUTT; antisense ACGUGACACGUUCGGAGAATT; further chemistry not given here) [reference compound]	100.0	83.9	69.7	58.4	52.6	36.2	26.0	–	–	–	–	–	–	–	–	–	–
